Some test systems named below: ACHN; COLO 205; HCT-15; HL-60; K562; LOX IMVI; MDA-MB-231; MDA-MB-435; Malme-3M; NCI-H226; NCI-H23; OVCAR-3; OVCAR-4; RXF 393; SF-268; SK-MEL-2; SNB-19; SNB-75; SW-620; UACC-62.
Experiment in all cases: inhibition of tumour cell growth, NCI panel, 48 h

7 compounds from ChEMBL document CHEMBL1201862, “PubChem BioAssay data set” (2004) can be followed below.

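96-well plates; 48 h exposure; 5 concentrations. Endpoints by linear interpolation between flanking doses. Not reached: highest tested concentration assigned. Abbreviation: GI50, concentration required for 50% inhibition of growth.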 Active and inactive are the calls of the source. Cut-off read from the data, not from the text of the source: active = GI50 up to about 1.1 µM and inactive = higher.

As for `Cc1cc(C)n(C2OC(CO)C(O)C(O)C2O)c(=S)c1C#N` (stereo not given), the GI50 with ACHN was > 100 µM (inactive); in the assay on COLO 205, > 100 µM (inactive); in the assay on HCT-15 it was greater than 100 µM; in the assay on HL-60, > 100 µM (inactive); with K562, > 10 µM (inactive); in the assay with LOX IMVI, > 100 µM (inactive). For the same compound, the GI50 with MDA-MB-231, with MDA-MB-435, in the assay with Malme-3M, with NCI-H226, in the assay on NCI-H23 and with OVCAR-3 was > 100 µM (inactive) each time. Also, the GI50 in the assay on OVCAR-4, in the assay on RXF 393, with SF-268, with SK-MEL-2, in the assay with SNB-19 and in the assay with SNB-75 was > 100 µM (inactive) each time. For the same compound, the GI50 in the assay with SW-620 and in the assay on UACC-62 was > 100 µM (inactive) throughout.

Regarding `O=C1OC[C@H]2[C@@H]1[C@H]1O[C@@H]2C2=C(CCC2)C1=O`, the GI50 was > 100 µM (inactive) in the assay with ACHN; > 100 µM (inactive) in the assay on COLO 205; greater than 100 µM with HCT-15; > 100 µM (inactive) in the assay on HL-60; > 100 µM (inactive) with K562; > 100 µM (inactive) with LOX IMVI. Besides, the GI50 in the assay on MDA-MB-231, in the assay on MDA-MB-435, in the assay with Malme-3M, with NCI-H226, in the assay on NCI-H23 and in the assay on OVCAR-3 was > 100 µM (inactive) each time. Besides, the GI50 in the assay on OVCAR-4, with RXF 393, with SF-268, with SK-MEL-2, with SNB-19 and in the assay on SNB-75 was > 100 µM (inactive) in each case. Further, the GI50 with SW-620 and in the assay with UACC-62 was > 100 µM (inactive) throughout.

For `Cc1ccc(SCN2CCCCC2)cc1.O=C(Cl)c1ccc([N+](=O)[O-])cc1`, the GI50 with ACHN is 12.6 µM (inactive); with COLO 205, 4.86 µM (inactive); in the assay on HCT-15, 9.77 µM; in the assay on HL-60, 1.67 µM (inactive); in the assay with K562, 13.8 µM (inactive); with LOX IMVI, 2.97 µM (inactive). For the same compound, the GI50 is 13.2 µM (inactive) in the assay on MDA-MB-231; 10.1 µM (inactive) with MDA-MB-435; 13.1 µM (inactive) in the assay on Malme-3M; 16.6 µM (inactive) in the assay on NCI-H226; 8.22 µM (inactive) with NCI-H23; 12.9 µM (inactive) in the assay on OVCAR-3. Further, the GI50 with OVCAR-4 is 12.4 µM (inactive); in the assay on RXF 393, 6.15 µM (inactive); with SF-268, 5.98 µM (inactive); with SK-MEL-2, 14.7 µM (inactive); in the assay on SNB-19, 19.2 µM (inactive); in the assay on SNB-75, 9.42 µM (inactive). The figures for the GI50 in the assay with SW-620 and in the assay on UACC-62 were 18.5 µM (inactive) and 13.7 µM (inactive), respectively.

Regarding `Cc1ccc(N(C)S(=O)(=O)c2ccccc2)cc1`, the GI50 in the assay on ACHN was > 100 µM (inactive); with COLO 205, > 100 µM (inactive); with HCT-15 it was greater than 100 µM; in the assay on HL-60, > 10 µM (inactive); in the assay on K562, 34.8 µM (inactive); in the assay on LOX IMVI, > 100 µM (inactive). Further, the GI50 with MDA-MB-231 was 88.3 µM (inactive); in the assay on MDA-MB-435, 74 µM (inactive); in the assay on Malme-3M, > 100 µM (inactive); with NCI-H226, > 100 µM (inactive); in the assay with NCI-H23 it was 95.5 µM (inactive); in the assay on OVCAR-3, > 100 µM (inactive). For the same compound, the GI50 was > 100 µM (inactive) in the assay on OVCAR-4; 29.5 µM (inactive) with RXF 393; > 100 µM (inactive) with SF-268; > 100 µM (inactive) in the assay with SK-MEL-2; > 100 µM (inactive) with SNB-19; > 100 µM (inactive) in the assay with SNB-75. Also, the GI50 is > 100 µM (inactive) in the assay on SW-620 and 84.5 µM (inactive) with UACC-62.

In the case of `CCCCCCCCCCCCOCCCCCCCCC/C=C/c1ccc2c(c1)OCCOCCOCCOCCO2`, the GI50 was 19.1 µM (inactive) with ACHN; 18.9 µM (inactive) in the assay on COLO 205; 45.9 µM in the assay with HCT-15; 28.8 µM (inactive) with HL-60; 31.3 µM (inactive) in the assay on K562; 19.3 µM (inactive) in the assay on LOX IMVI. Besides, the GI50 is 17.1 µM (inactive) with MDA-MB-231; 18.3 µM (inactive) in the assay on MDA-MB-435; 24.6 µM (inactive) in the assay on Malme-3M; 17.8 µM (inactive) in the assay with NCI-H226; 15.6 µM (inactive) in the assay with NCI-H23; 21.1 µM (inactive) in the assay on OVCAR-3. The GI50 in the assay with OVCAR-4 is 19.3 µM (inactive); in the assay on RXF 393, 19.2 µM (inactive); in the assay on SF-268, 22.8 µM (inactive); in the assay with SK-MEL-2, 15.8 µM (inactive); in the assay with SNB-19, 33.3 µM (inactive); in the assay on SNB-75, 16.4 µM (inactive). Also, the GI50 was 30.3 µM (inactive) in the assay with SW-620 and 15.1 µM (inactive) in the assay on UACC-62.

As for `CC(=O)Nc1ccc2c3c(cc(O)c2c1)N(C(=O)CCCCCC(=O)N1CC(CCl)c2c1cc(O)c1cc(NC(C)=O)ccc21)CC3CCl` (stereo not given), the GI50 in the assay on ACHN is < 0.01 µM (active); in the assay on COLO 205, 0.016 µM (active); in the assay on HCT-15 it was 0.377 µM; in the assay on HL-60, 0.115 µM (active); in the assay with K562, 0.0625 µM (active); with LOX IMVI, < 0.01 µM (active). The GI50 with MDA-MB-231 was 0.0301 µM (active); in the assay on MDA-MB-435, 0.0191 µM (active); with Malme-3M, 0.0125 µM (active); in the assay on NCI-H226 it was < 0.0149 µM (active); in the assay on NCI-H23, < 0.01 µM (active); with OVCAR-3, 0.0172 µM (active). Also, the GI50 in the assay on OVCAR-4 is 0.181 µM (active); with RXF 393, 0.0152 µM (active); in the assay on SF-268, < 0.01 µM (active); in the assay with SK-MEL-2, 0.0147 µM (active); in the assay on SNB-19, < 0.01 µM (active); with SNB-75, < 0.01 µM (active). Moreover, the GI50 with SW-620 is 0.13 µM (active); in the assay on UACC-62, < 0.01 µM (active).

`CC1=C(CCC(C)CO)O[C@H]2C[C@H]3[C@@H]4CC[C@H]5C[C@@H](O)CC[C@]5(C)[C@H]4CC(=O)[C@]3(C)[C@@H]12` (stereo not given in full): the GI50 in the assay on ACHN was 17.5 µM (inactive); in the assay with COLO 205, 8.97 µM (inactive); with HCT-15, 17.1 µM; with HL-60, 2.94 µM (inactive); with K562, 10.4 µM (inactive); with LOX IMVI, 12.7 µM (inactive). Moreover, the GI50 is 18.1 µM (inactive) in the assay with MDA-MB-231; 18.9 µM (inactive) in the assay on MDA-MB-435; 19.1 µM (inactive) with Malme-3M; 27.2 µM (inactive) in the assay with NCI-H226; 14.9 µM (inactive) in the assay with NCI-H23; 4.94 µM (inactive) in the assay on OVCAR-3. In addition, the GI50 in the assay on OVCAR-4 is 25.2 µM (inactive); in the assay with RXF 393, 29.1 µM (inactive); in the assay on SF-268, 19.1 µM (inactive); in the assay with SK-MEL-2, 11.7 µM (inactive); in the assay with SNB-19, 22.3 µM (inactive); in the assay on SNB-75 it was 20.6 µM (inactive). Moreover, the GI50 in the assay with SW-620 was 35.6 µM (inactive); in the assay with UACC-62 it was 6.17 µM (inactive).
